*1 amine or outer side, *2 acyl side, *3 side chain or, on linkers, in order; H or OH if unused. Where a SMILES comes first, the peptide text is derived from it. Bridges are numbered along the chain shown (N, C = ends). Side-chain parts run from the residue outwards. The star is where a group is joined. C20 diacid = O=C(O)CCCCCCCCCCCCCCCCCCC(=O)*; γGlu = O=C(O)[C@H](CCC(=O)[*:2])N[*:1]; AEEA = NCCOCCOCC(=O)O
Tests used:
food intake = assay: Pharmacological Assay (I) - efficacy testing on appetite, ad libitum fed rat model; format: in vivo, Sprague Dawley (SD) rats; conditions: 30 nmol/kg vs vehicle, ad libitum fed rats, n=5-7, 0-48 hours
Description: Assays Pharmacological Assay (I)—Experimental Protocol for Efficacy Testing on Appetite with an Amylin Derivative, Using an Ad Libitum Fed Rat Model. Sprague Dawley (SD) rats from Taconic Europe, Denmark are used for the experiments. The rats have a body weight 200-250 g at the start of experiment. The rats arrive at least 10-14 days before start of experiment to allow acclimatization to experimental settings. During this period the animals are handled at least 2 times. After arrival rats are housed individually for one week in a reversed light/dark phase (meaning that lights are off during daytime and on during nighttime) for two weeks. Since rats are normally active and eat their major part of their daily food intake during the dark period, rats are dosed in the morning right before lights are turned off. This set-up results in the lowest data variation and highest test sensitivity. The experiment is conducted in the rats' home cages and rats have free access to food and water throughout the acclimatization period and the experiment period. Each dose of derivative is tested in a group of 5-8 rats. A vehicle group of 6-8 rats is included in each set of testing. Rats are dosed once according to body weight with a 0.01-3 mg/kg solution administered intraperitoneally (ip), orally (po) or subcutaneously (sc). The time of dosing is recorded for each group. After dosing, the rats are returned to their home cages, where they then have access to food and water. The food consumption is recorded individually continuously by on-line registration or manually every hour for 7 hours, and then after 24 h and sometimes 48 h. At the end of the experimental session, the animals are euthanized. The individual data are recorded in Microsoft excel sheets. Outliers are excluded after applying the Grubbs statistical evaluation test for outliers, and the result is presented graphically using the GraphPad Prism program.

[1] = target: T1, Amylin 3(a) receptor (human calcitonin receptor (CTa) and RAMP-3) (Homo sapiens, UniProt O60896+P30988); assay: Luciferase assay (III), BHK Amylin 3(a)//CRE-luc cells; format: cell-based; conditions: BHK cells with Amylin 3(a) receptor and CRE luciferase reporter, 4 hours incubation; read-out: Potency Luciferase
T1 construct: expressed in transfected cells; host or cells: BHK570 cells, stably transfected with a CRE-luciferase reporter
Procedure, shortened: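 Read-out is CRE-driven luciferase luminescence, taken 30 min after LucLite addition at room temperature. Compounds were incubated 4 h at 37° C in assay medium (10% FBS, 10 mM Hepes, pH 7,4). The cell line is BHK570 co-transfected with human calcitonin receptor CTa and RAMP-3, seeded overnight before use.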

[2] = Assay (V) PK - determination of T½ in mini-pig; format: in vivo; conditions: minipig, sc; terminal plasma half-life, subcutaneous, approx 2 nmol/kg, male Göttingen mini-pigs
Method: Assay (V) PK—Determination OF T½ in Mini-Pig
T½ is the terminal half-life=ln 2/λz of a compound in plasma. λz is the first order rate constant associated with the terminal (log-linear) portion of the plasma concentration-time curve and is estimated by linear regression of time vs. log concentration.
T½ values of the amylin analogues of the invention is determined by pharmacokinetic studies in male Göttingen mini-pigs from Ellegaard Göttingen Minipigs ApS and the principles of laboratory animal care are followed.
An acclimatization period of approximately 6-10 days was allowed before the animals entered the study. At start of the acclimatization period the mini-pigs were about 5 to 12 months old and in the weight range of 7-35 kg. The mini-pigs had two central venous catheters inserted which were used for blood sampling.
The studies were conducted in an animal room which was illuminated to give a cycle of approx 12 hours light and 12 hours darkness. The animals were housed individually.
The animals had free access to domestic quality drinking water during the study, but were typically fasted from overnight before dosing until approx 6-12 hours after dosing. The animals were weighed on arrival and on the days of dosing.
In the present studies the test substances were administered subcutaneously in approx 2 nmol/kg dose. The animals received a single subcutaneous injection. The subcutaneous injection was given on the right side of the neck, approximately 5-7 cm from the ear and 7-9 cm from the middle of the neck. The injections were given with a stopper on the needle, allowing approx 0.5 cm of the needle to be introduced. Each test substance was given to typically three but in some cases two or four animals.
A full plasma concentration-time profile, employing 12-16 sampling points, was obtained from each animal. In example blood samples were collected according to the following schedule:
After subcutaneous administration:
Predose (0), 0.5, 1, 2, 4, 6, 8, 12, 24, 48, 72, 96, 120, 168 and 240 hours after injection. In some cases also additional blood samples up to 288 hours post injection were taken.
At each sampling time, 0.5 to 2 ml of blood was drawn from each animal. The blood samples were taken via the central venous catheter.
The blood samples were collected into EDTA test tubes (i.e. Sarstedt Micro tube 1.3 mL K3E). Blood samples were kept on ice for max 20 min. before centrifugation. Plasma was separated using centrifugation (i.e. at 4° C., 10 min., 1500 G) and was immediately transferred to Micronic tubes. Approximately 200 μl plasma was transferred to each Micronic tube. The plasma was stored at −20° C. until assayed. The plasma samples were assayed for the content of amylin using an ELISA assay.
The plasma concentration-time profiles were analysed by a non-compartmental pharmacokinetic analysis (NCA) using WinNonlin Professional 5.0 (Pharsight Inc., Mountain View, Calif., USA). NCA was performed using the individual plasma concentration-time profiles from each animal. T½ is the terminal half-life=ln 2/λz and was determined from λz, the first order rate constant associated with the terminal (log-linear) portion of the curve, estimated by linear regression of time vs. log concentration.
ELISA Plasma Assay for Amylin Quantification
The human amylin ELISA is a monoclonal antibody-based sandwich immunoassay for determining amylin levels in human plasma. The capture antibody recognizes human amylin, amylin acid (deamidated amylin), a 1-20 fragment of amylin, but not reduced amylin.
The detection antibody binds to reduced or unreduced human amylin but not amylin acid and is complexed with streptavidin-alkaline phosphatase. The substrate, 4-methylumbelliferyl phosphate, is applied to the completed sandwich and the fluorescent signal, monitored at 355 nm/460 nm, is proportional to the amount of amylin present in the sample.

T1 sequence (O60896 24-148): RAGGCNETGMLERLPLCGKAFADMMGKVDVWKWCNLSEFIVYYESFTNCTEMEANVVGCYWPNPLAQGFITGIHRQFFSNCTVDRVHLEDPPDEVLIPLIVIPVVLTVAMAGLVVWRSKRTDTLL
T1 sequence (P30988 25-474): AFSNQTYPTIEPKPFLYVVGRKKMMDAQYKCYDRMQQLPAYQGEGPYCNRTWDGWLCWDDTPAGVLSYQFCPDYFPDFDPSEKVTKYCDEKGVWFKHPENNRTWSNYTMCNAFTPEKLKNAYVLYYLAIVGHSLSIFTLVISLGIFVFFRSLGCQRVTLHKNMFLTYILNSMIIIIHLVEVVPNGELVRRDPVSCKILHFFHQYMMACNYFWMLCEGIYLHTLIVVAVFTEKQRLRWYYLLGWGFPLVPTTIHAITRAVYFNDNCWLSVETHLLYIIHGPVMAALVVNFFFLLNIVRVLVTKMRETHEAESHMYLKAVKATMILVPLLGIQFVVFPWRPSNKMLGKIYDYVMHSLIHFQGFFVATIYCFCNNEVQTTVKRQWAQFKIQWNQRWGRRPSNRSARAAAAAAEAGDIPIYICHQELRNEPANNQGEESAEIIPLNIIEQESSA

EC50 [1] [nM] | half-life [2] [h] | Compound | food intake over a period of 48 hours (food intake)
0.4 |  | CC[C@H](C)[C@H](NC(=O)[C@@H]1CCCN1C(=O)CNC(=O)[C@H](Cc1ccccc1)NC(=O)[C@H](CC(N)=O)NC(=O)[C@H](CC(=O)O)NC(=O)[C@H](CO)NC(=O)[C@H](CO)NC(=O)[C@H](Cc1c[nH]cn1)NC(=O)[C@H](Cc1c[nH]cn1)NC(=O)[C@H](CC(C)C)NC(=O)[C@H](Cc1ccccc1)NC(=O)[C@H](CC(N)=O)NC(=O)[C@H](C)NC(=O)[C@H](CC(C)C)NC(=O)[C@H](CCCNC(=N)N)NC(=O)[C@H](CCC(N)=O)NC(=O)[C@@H](NC(=O)[C@H](C)NC(=O)[C@@H]1CSSC[C@H](NC(=O)[C@@H](N)CCCCN)C(=O)N[C@@H](CCCCNC(=O)COCCOCCNC(=O)[C@H](CCC(=O)O)NC(=O)[C@H](CCC(=O)O)NC(=O)CCCCCCCCCCCCCCCCCCC(=O)O)C(=O)N[C@@H]([C@@H](C)O)C(=O)N[C@@H](C)C(=O)N[C@@H]([C@@H](C)O)C(=O)N1)[C@@H](C)O)C(=O)N[C@@H](CC(C)C)C(=O)N1CCC[C@H]1C(=O)N1CCC[C@H]1C(=O)N[C@H](C(=O)N[C@@H](CC(N)=O)C(=O)N[C@H](C(=O)NCC(=O)N[C@@H](CO)C(=O)N[C@@H](CC(N)=O)C(=O)N[C@H](C(=O)N[C@@H](Cc1ccc(O)cc1)C(N)=O)[C@@H](C)O)C(C)C)[C@@H](C)O [Example 3, N-epsilon3-{2-[2-(2-{(S)-4-Carboxy-2-[(S)-4-carboxy-2-(19-carboxynonadecanoylamino)butyrylamino]butyrylamino}ethoxy)ethoxy]acetyl}-[Lys3,His17,Asp21]-pramlintide] (H-KCK([AEEA-Glu-Glu-C20 diacid])TATCATQRLANFLHHSSDNFGPILPPTNVGSNTY-NH2; disulfide 2-7) | effectively reducing food intake
0.2 | 30 | CC[C@H](C)[C@H](NC(=O)[C@@H]1CCCN1C(=O)CNC(=O)[C@H](Cc1ccccc1)NC(=O)[C@H](CC(N)=O)NC(=O)[C@H](CC(N)=O)NC(=O)[C@H](CO)NC(=O)[C@H](CO)NC(=O)[C@H](CCCNC(=N)N)NC(=O)[C@H](Cc1c[nH]cn1)NC(=O)[C@H](CC(C)C)NC(=O)[C@H](Cc1ccccc1)NC(=O)[C@H](CC(N)=O)NC(=O)[C@H](C)NC(=O)[C@H](CC(C)C)NC(=O)[C@H](CCCNC(=N)N)NC(=O)[C@H](CCC(N)=O)NC(=O)[C@@H](NC(=O)[C@H](C)NC(=O)[C@@H]1CSSC[C@H](NC(=O)[C@H](Cc2c[nH]cn2)NC(=O)[C@H](Cc2c[nH]cn2)NC(=O)CC[C@H](NC(=O)CCCCCCCCCCCCCCCCCCC(=O)O)C(=O)O)C(=O)N[C@@H](CC(N)=O)C(=O)N[C@@H]([C@@H](C)O)C(=O)N[C@@H](C)C(=O)N[C@@H]([C@@H](C)O)C(=O)N1)[C@@H](C)O)C(=O)N[C@@H](CC(C)C)C(=O)N1CCC[C@H]1C(=O)N1CCC[C@H]1C(=O)N[C@H](C(=O)N[C@@H](CC(N)=O)C(=O)N[C@H](C(=O)NCC(=O)N[C@@H](CO)C(=O)N[C@@H](CC(N)=O)C(=O)N[C@H](C(=O)N[C@@H](Cc1ccc(O)cc1)C(N)=O)[C@@H](C)O)C(C)C)[C@@H](C)O [Example 47, N-alpha-[(S)-4-Carboxy-4-(19-carboxynonadecanoylamino)butyryl]-His-[His1,His17,Arg18]-pramlintide] ({C20 diacid-γGlu}-HHCNTATCATQRLANFLHRSSNNFGPILPPTNVGSNTY-NH2; disulfide 3-8) | effectively reducing food intake
0.1 |  | CC[C@H](C)[C@H](NC(=O)[C@@H]1CCCN1C(=O)CNC(=O)[C@H](Cc1ccccc1)NC(=O)[C@H](CC(N)=O)NC(=O)[C@H](CC(N)=O)NC(=O)[C@H](CO)NC(=O)[C@H](CO)NC(=O)[C@H](Cc1c[nH]cn1)NC(=O)[C@H](Cc1c[nH]cn1)NC(=O)[C@H](CC(C)C)NC(=O)[C@H](Cc1ccccc1)NC(=O)[C@H](CC(N)=O)NC(=O)[C@H](C)NC(=O)[C@H](CC(C)C)NC(=O)[C@H](CCCNC(=N)N)NC(=O)[C@H](CCC(N)=O)NC(=O)[C@@H](NC(=O)[C@H](C)NC(=O)[C@@H]1CSSC[C@H](NC(=O)[C@H](Cc2c[nH]cn2)NC(=O)[C@H](Cc2c[nH]cn2)NC(=O)COCCOCCNC(=O)CC[C@H](NC(=O)CCCCCCCCCCCCCCCCCCC(=O)O)C(=O)O)C(=O)N[C@@H](CC(N)=O)C(=O)N[C@@H]([C@@H](C)O)C(=O)N[C@@H](C)C(=O)N[C@@H]([C@@H](C)O)C(=O)N1)[C@@H](C)O)C(=O)N[C@@H](CC(C)C)C(=O)N1CCC[C@H]1C(=O)N1CCC[C@H]1C(=O)N[C@H](C(=O)N[C@@H](CC(N)=O)C(=O)N[C@H](C(=O)NCC(=O)N[C@@H](CO)C(=O)N[C@@H](CC(N)=O)C(=O)N[C@H](C(=O)N[C@@H](Cc1ccc(O)cc1)C(N)=O)[C@@H](C)O)C(C)C)[C@@H](C)O [Example 38, N-alpha-[2-(2-{2-[4-(S)-Carboxy-4-(19-carboxynonadecanoylamino)butyrylamino]ethoxy}ethoxy)acetyl]-His-[His1,His17]-pramlintide] ({C20 diacid-γGlu-AEEA}-HHCNTATCATQRLANFLHHSSNNFGPILPPTNVGSNTY-NH2; disulfide 3-8) | effectively reducing food intake

— US8895504B2, “Amylin derivatives” (priority 2008, dated 2014)
